# Assay results reported in patent US11492347B2 (ENYO PHARMA, priority 2018, dated 2022).
# Columns and labels:
# [1] = system: H1N1 (influenza A/New Caledonia/20/99); assay: microbe, parasite or virus in culture; format: cell-based; settings: H1N1, A549, 48 h
# [2] = system: West Nile Virus; assay: Antiviral effect in infected Huh7 cells, plaque assay on VeroE6; format: cell-based, WNV stain New-York 99; settings: Huh-7, MOI of 0,1 pfu per cell, supernatants 48 h post infection
# Description: Compound #18 was tested on other viruses. The NEET protein modulators are capable of inhibiting other viruses such as West Nile Virus, Dengue and Zika with a high efficiency.
# Assays were performed with the following strains/serotypes: • DENV serotype 2 strain New Guinea C • ZIKV strain MR766 • WNV stain New-York 99
# 1×10^5 Huh7 cells were infected with DENV, ZIKV, or WNV at a MOI of 0,1 pfu per cell in presence of the test compound. Two hours post-infection the inoculum was removed and cells washed twice with PBS 1×. Fresh medium containing the test compound was added. Supernatants were harvested 48 h post infection, filtered through a 0.45 μm pore membrane and directly used for plaque assays.
# VeroE6 cells were infected with serial dilutions of virus supernatants. Two hours post-infection inoculum was replaced by serum-free MEM medium (Gibco, Life Technologies) containing 1.5% carboxymethyl cellulose (Sigma-Aldrich). At different days post infection (day 3 for WNV, day 4 for ZIKV, day 7 for DENV) cells were fixed by addition of formaldehyde to a final concentration of 5%. Cells were stained with crystal violet solution (1% crystal violet, 10% ethanol in H2O) for 30 min at room temperature and extensively rinsed with H2O. Infectious titers were calculated considering the corresponding dilution factor.
# [3] = system: Dengue; assay: microbe, parasite or virus in culture; format: cell-based, DENV serotype 2 strain New Guinea C; settings: Huh-7, 48 h
# [4] = system: Zika; assay: Antiviral effect in infected Huh7 cells, plaque assay on VeroE6; format: cell-based, ZIKV strain MR766; settings: Zika virus, Huh-7, MOI of 0,1 pfu per cell, supernatants 48 h post infection
# [5] = biological target: T1, CISD1 Gene Product (mitoNEET) (Homo sapiens, UniProt Q9NZ45); assay: Stability of Fe-S cluster binding of purified NEET protein (absorbance 458 nm); format: biochemical
# T1 sequence (Q9NZ45 33-108 limits assumed): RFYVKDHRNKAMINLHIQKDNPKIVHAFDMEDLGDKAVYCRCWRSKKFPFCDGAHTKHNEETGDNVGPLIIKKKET
# Description: (§1) The modulator effect on the NEET proteins encoded by human CISD1, CISD2, and CISD3 genes by the compounds of the invention has been tested and is reported below. Particularly, the biochemical function of the NEET proteins is measured by the stability of Fe—S cluster binding of the purified NEET proteins.
# (§2) The Fe—S cluster binding capacity of NEET proteins is known to be coordinated by four amino-acids in a stretch of 16 (three Cysteine and one Histidine). As the lability of the Fe—S cluster of NEET proteins is sensitive to the environment, cluster stability measurements are one of the measures of interactions of NEET proteins with small molecules and compounds. NEET protein/2Fe-2S cluster stability can be assessed by monitoring the decay in absorbance of its characteristic 458-nm peak (characteristic of the oxidized 2Fe-2S cluster) over time. Each NEET protein (mitoNEET, NAF-1 and Miner 2) was tested for its Fe—S binding in the absence or presence of a compound according to the invention (see table 4 below). The rate of cluster release (time in minutes to achieve 50% loss of bound Fe—S cluster) was compared for each NEET protein in the presence of one of the compounds of the invention (in a 1:3 protein:compound molar ratio) relative to each protein alone.
# (§3) At pH 6, all the three NEET proteins (mitoNEET, NAF-1 and Miner 2) have a characteristic rate of loss of the bound Fe—S cluster that can be measured by the decrease of absorbance at wavelength 458 nm over time, using a spectrophotometer. Thus, Bis-Tris buffer (100 mM Bis-Tris pH6, 100 mM Nacl) was used at pH 6 to dilute either DMSO (Blank sample: Bis-Tris Buffer pH 6, 66 μM DMSO), DMSO and one of the three NEET proteins (Control sample: Bis-Tris Buffer pH 6, 66 μM DMSO, 20 μM purified NEET protein) or DMSO, one of the three NEET proteins and a compound of the invention (Test sample: Bis-Tris Buffer pH 6, 66 μM DMSO, 20 μM purified NEET protein, 60 μM compound of the invention).
# (§4) A reaction mix containing DMSO diluted in the Bis-Tris Buffer with or without a compound of the invention was prepared. The purified NEET protein was the last component added to the reaction mix which was then aliquoted into 4 replicates in 96 wells plates. The absorbance at wavelength 458 nm was taken at 5 minutes intervals at 37° C. with a spectrofluorimeter. The assay run time for CISD2 gene product (NAF-1) was 500 minutes and 180 minutes for both the CISD1gene product (mitoNEET) and the CISD3 gene product (Miner2).
# (§5) In addition to time monitoring, residual bound Fe—S cluster to NEET protein was measured at the final point of the spectrometry assay for each Test sample and compared to the Control sample data (in parenthesis table 4). This residual binding is measured by the differential percentage between the absorbance 458 nm at time zero and the absorbance 458 nm at the end of the experiment (i.e. respectively 500 or 180 minutes as described here above), showing the percentage of NEET protein still able to bind a Fe—S cluster.
# (§6) Analysis of the absorbance enables the time for which 50% loss of bound Fe—S cluster is reached (i.e. a 50% absorbance decrease at 458 nm) for each Test sample and each Control sample (in parenthesis table 4) to be determined. The data are then compared to determine whether the compound of the invention stabilizes or destabilizes the NEET protein/Fe—S cluster binding.
# [6] = biological target: T2, CISD2 Gene Product (NAF-1) (Homo sapiens, UniProt Q8N5K1); assay: as above; format: biochemical; settings: NAF-1 20 μM, compound 60 μM
# T2 sequence (Q8N5K1 57-135 limits assumed): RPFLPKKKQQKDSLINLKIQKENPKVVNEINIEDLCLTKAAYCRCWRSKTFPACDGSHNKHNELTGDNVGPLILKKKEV
# Description: as §1, §2, §3, §4, §5, §6
# [7] = biological target: T3, CISD3 Gene Product (Miner2) (Homo sapiens, UniProt P0C7P0); assay: as above; format: biochemical
# T3 sequence (P0C7P0 15-127): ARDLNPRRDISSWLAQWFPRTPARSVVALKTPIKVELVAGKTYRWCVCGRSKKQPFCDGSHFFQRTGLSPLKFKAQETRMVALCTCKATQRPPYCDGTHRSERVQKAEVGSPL
# Description: as §1, §2, §3, §4, §5, §6
# [8] = time to 50% cluster loss changed by more than 25% compared to the Control sample, at the concentrations tested
compound,measurement,setting,value
"COc1ccc(C(=O)Nc2sc3c(c2C(=O)O)CCC(C)(C)C3)cc1OC [Compound #18, 2-[(3,4-Dimethoxybenzoyl)amino]-6,6-dimethyl-5,7-dihydro-4H-benzothiophene-3-carboxylic acid]",IC50,[1],50 nM
same,IC50,[2],2500 nM
same,IC50,[3],5000 nM
same,IC50,[4],3000 nM
same,Residual cluster bound at end of experiment (Percentage Absorbance 458 nm at time zero),"[5]; mitoNEET 20 μM, compound 60 μM, pH 6, at 180 minutes, vehicle control 16%",62% (16%)
same,Stabiliser or destabiliser of Fe-S cluster binding by CISD1 Gene Product (mitoNEET),[5]; [8],stabilisers
same,Time (in minutes) to achieve 50% loss of bound cluster (Absorbance 458 nm),"[6]; pH 6, 37° C., run time 500 minutes, vehicle control 310 or 210",425 (310) minutes
same,Residual cluster bound at end of experiment (Percentage Absorbance 458 nm at time zero),"[6]; pH 6, at 500 minutes, vehicle control 3%",42% (3%)
same,Residual cluster bound at end of experiment (Percentage Absorbance 458 nm at time zero),"[7]; CISD3 gene product 20 μM, compound 60 μM, pH 6, at 180 minutes, vehicle control 11%",70% (11%)
same,Stabiliser or destabiliser of Fe-S cluster binding by CISD3 Gene Product (Miner2),[7]; [8],Stabilisers
